Source: ChEMBL document CHEMBL6177932 (J Med Chem, 2024)
Blank lines part the entries; values can stand above or below the compound they belong to. Calls of active or inactive are those of the source. The rule behind the calls is not given here.

Key:
[1] = test system: Mus musculus; assay: Immunomodulatory activity in mouse 4T1 cells implanted BALB/c mouse assessed as reduction in Ccl5 gene expression at 0.2 mg/kg, ip administered daily for 18 days by RT-qPCR analysis; type: functional, organism-based; details: time 18.0 day
[2] = test system: 4T1; assay: Inhibition of class 1 HDAC in mouse 4T1 cells assessed as induction of H3K9 acetylation at 10 uM measured after 6 hrs by Western blot analysis; type: cell-based
[3] = Toxicity in mouse B16-F10 cells implanted C57BL/6 mouse at 0.2 mg/kg, ip administered daily for 28 days; type: organism-based; details: in vivo, time 28 day
[4] = test system: B16-F10; assay: Cytotoxicity against mouse B16-F10 cells assessed as reduction in cell viability at 0.01 to 100 uM measured after 24 hrs by RealTime-glo cell viability assay; type: functional, cell-based; details: dose 0.01-100 µM
[5] = molecular target: T1, Vitamin D3 receptor (Mus musculus) (UniProt P48281); assay: Agonist activity at VDR in mouse 4T1 cells assessed as induction of Cyp24a1 gene at 0.1 to 10 uM measured after 24 hrs by RT-qPCR analysis; type: cell-based; details: filed as agonist, dose 0.1-10 µM
T1 sequence (whole entry): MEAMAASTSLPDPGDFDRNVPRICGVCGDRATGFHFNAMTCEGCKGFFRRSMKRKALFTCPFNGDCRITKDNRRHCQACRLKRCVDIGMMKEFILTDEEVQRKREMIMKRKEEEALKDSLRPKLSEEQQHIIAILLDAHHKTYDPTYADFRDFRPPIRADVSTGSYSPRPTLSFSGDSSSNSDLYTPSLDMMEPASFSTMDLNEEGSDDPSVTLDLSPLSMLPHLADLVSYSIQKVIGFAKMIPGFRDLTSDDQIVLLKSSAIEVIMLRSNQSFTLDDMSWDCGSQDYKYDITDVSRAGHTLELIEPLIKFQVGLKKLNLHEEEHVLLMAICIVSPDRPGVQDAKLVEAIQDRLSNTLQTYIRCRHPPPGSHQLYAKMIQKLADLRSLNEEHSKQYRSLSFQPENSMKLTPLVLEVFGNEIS

[6] = molecular target: T1, Vitamin D3 receptor (Mus musculus); assay: Agonist activity at VDR in mouse 4TO7 cells assessed as induction of Cyp24a1 gene at 0.1 to 10 uM measured after 24 hrs by RT-qPCR analysis; type: cell-based; details: filed as agonist, dose 0.1-10 µM
[7] = test system: B16-F10; assay: Antitumor activity against mouse B16-F10 cells implanted in C57BL/6 mouse assessed as reduction in tumor burden at 0.2 mg/kg, ip administered every second day for 18 days; type: functional, organism-based; details: time 18.0 day
[8] = test system: Mus musculus; assay: Immunomodulatory activity in mouse 4T1 cells implanted BALB/c mouse assessed as reduction in Ccl2 gene expression at 0.2 mg/kg, ip administered daily for 18 days by RT-qPCR analysis; type: functional, organism-based; details: time 18.0 day
[9] = test system: Mus musculus; assay: Immunomodulatory activity in mouse 4T1 cells implanted BALB/c mouse assessed as reduction in Cxcl10 gene expression at 0.2 mg/kg, ip administered daily for 18 days by RT-qPCR analysis; type: functional, organism-based; details: time 18.0 day
[10] = test system: 4T1; assay: Antitumor activity against mouse 4T1 cells implanted in BALB/c mouse assessed as reduction in tumor burden at 0.2 mg/kg, ip administered daily for 18 days; type: functional, organism-based; details: time 18.0 day
[11] = test system: 4T1; assay: Inhibition of class 1 HDAC in mouse 4T1 cells assessed as induction of H3K27 acetylation at 10 uM measured after 6 hrs by Western blot analysis; type: cell-based
[12] = Toxicity in 4T1 cells implanted BALB/c mouse assessed as stress at 0.2 mg/kg, ip administered daily for 18 days; type: organism-based; details: in vivo, 432 h, time 18 day
[13] = test system: Mus musculus; assay: Immunomodulatory activity in mouse 4T1 cells implanted BALB/c mouse assessed as induction of Il1a gene expression at 0.2 mg/kg, ip administered daily for 18 days by RT-qPCR analysis; type: functional, organism-based; details: time 18.0 day
[14] = Toxicity in mouse B16-F10 cells implanted C57BL/6 mouse assessed as effect on body weight at 0.2 mg/kg, ip administered daily for 28 days; type: organism-based; details: in vivo, time 28 day
[15] = test system: Mus musculus; assay: Immunomodulatory activity in mouse 4T1 cells implanted BALB/c mouse assessed as reduction in Ccl20 gene expression at 0.2 mg/kg, ip administered daily for 18 days by RT-qPCR analysis; type: functional, organism-based; details: time 18.0 day
[16] = Toxicity in 4T1 cells implanted BALB/c mouse assessed as body weight loss at 0.2 mg/kg, ip administered daily for 18 days; type: organism-based; details: in vivo, 432 h, time 18 day
[17] = molecular target: T2, Protein deacetylase HDAC6 (Mus musculus) (UniProt Q9Z2V5); assay: Inhibition of HDAC6 in mouse 4T1 cells assessed as induction of tubulin acetylation at 10 uM measured after 6 hrs by Western blot analysis; type: cell-based
T2 sequence (whole entry): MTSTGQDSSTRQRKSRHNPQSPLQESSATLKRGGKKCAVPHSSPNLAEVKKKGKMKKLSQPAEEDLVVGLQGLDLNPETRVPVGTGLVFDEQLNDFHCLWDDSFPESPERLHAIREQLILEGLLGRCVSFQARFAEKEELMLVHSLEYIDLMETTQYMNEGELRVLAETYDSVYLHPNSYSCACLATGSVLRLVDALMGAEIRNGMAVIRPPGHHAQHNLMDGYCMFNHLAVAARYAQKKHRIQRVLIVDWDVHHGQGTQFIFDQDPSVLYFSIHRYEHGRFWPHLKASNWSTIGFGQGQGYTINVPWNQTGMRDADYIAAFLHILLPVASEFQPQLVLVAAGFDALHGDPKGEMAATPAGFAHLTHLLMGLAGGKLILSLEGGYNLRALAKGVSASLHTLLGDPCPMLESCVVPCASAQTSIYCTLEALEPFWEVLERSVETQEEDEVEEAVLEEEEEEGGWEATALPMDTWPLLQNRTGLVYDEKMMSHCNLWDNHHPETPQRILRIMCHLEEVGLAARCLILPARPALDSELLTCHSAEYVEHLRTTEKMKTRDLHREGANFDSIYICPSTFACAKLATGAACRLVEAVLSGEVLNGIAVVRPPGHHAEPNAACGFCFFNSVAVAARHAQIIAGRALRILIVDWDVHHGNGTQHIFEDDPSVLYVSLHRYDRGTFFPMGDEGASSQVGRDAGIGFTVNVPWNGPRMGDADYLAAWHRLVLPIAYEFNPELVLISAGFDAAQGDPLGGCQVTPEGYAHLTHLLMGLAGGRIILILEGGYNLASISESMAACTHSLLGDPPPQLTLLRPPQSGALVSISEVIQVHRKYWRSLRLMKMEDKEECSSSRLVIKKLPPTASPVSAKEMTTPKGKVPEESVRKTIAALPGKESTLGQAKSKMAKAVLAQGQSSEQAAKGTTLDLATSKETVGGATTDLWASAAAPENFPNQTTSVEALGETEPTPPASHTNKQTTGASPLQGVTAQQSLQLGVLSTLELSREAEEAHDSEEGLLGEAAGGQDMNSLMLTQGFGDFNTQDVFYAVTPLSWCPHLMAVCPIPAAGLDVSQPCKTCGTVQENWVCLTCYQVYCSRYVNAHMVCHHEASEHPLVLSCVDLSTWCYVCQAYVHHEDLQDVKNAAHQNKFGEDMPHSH

[18] = test system: 4TO7; assay: Inhibition of class 1 HDAC in mouse 4TO7 cells assessed as induction of H3K27 acetylation at 10 uM measured after 6 hrs by Western blot analysis; type: cell-based
[19] = molecular target: T2, Protein deacetylase HDAC6 (Mus musculus); assay: Inhibition of HDAC6 in mouse 4TO7 cells assessed as induction of tubulin acetylation at 10 uM measured after 6 hrs by Western blot analysis; type: cell-based
[20] = test system: 4TO7; assay: Inhibition of class 1 HDAC in mouse 4TO7 cells assessed as induction of H3K9 acetylation at 10 uM measured after 6 hrs by Western blot analysis; type: cell-based
[21] = test system: 4T1; details: Mus musculus, time 24.0 hrs
[22] = molecular target: T2, Protein deacetylase HDAC6 (Mus musculus); assay: Inhibition of HDAC6 in mouse B16-F10 cells assessed as induction of tubulin acetylation at 10 uM measured after 6 hrs by Western blot analysis; type: cell-based
[23] = test system: B16-F10; assay: Inhibition of class 1 HDAC in mouse B16-F10 cells assessed as induction of H3K27 acetylation at 10 uM measured after 6 hrs by Western blot analysis; type: cell-based
[24] = test system: B16-F10; assay: Inhibition of class 1 HDAC in mouse B16-F10 cells assessed as induction of H3K9 acetylation at 10 uM measured after 6 hrs by Western blot analysis; type: cell-based
[25] = Toxicity in mouse B16-F10 cells implanted C57BL/6 mouse assessed as effect on body weight at 50 mg/kg, ip administered daily for 28 days; type: organism-based; details: in vivo, time 28 day
[26] = test system: B16-F10; assay: Antitumor activity against mouse B16-F10 cells implanted in C57BL/6 mouse assessed as reduction in tumor burden at 50 mg/kg, ip administered every second day for 18 days; type: functional, organism-based; details: time 18.0 day
[27] = Toxicity in mouse B16-F10 cells implanted C57BL/6 mouse at 50 mg/kg, ip administered daily for 28 days; type: organism-based; details: in vivo, time 28 day

Activity [5]: Active
Activity [6]: Active
inhibition [17]: Active
Compound: CCC(CC)(c1ccc(OCCCCCC(=O)NO)cc1)c1ccc(OCC(O)C(C)(C)C)c(C)n1 (configuration not stated)
Activity [1]: Active
inhibition [2]: Active
Activity [3]: Non-toxic
Activity [4]: Active
Activity [7]: Active
Activity [8]: Active
Activity [9]: Active
Activity [10]: Active
inhibition [11]: Active
Activity [12]: Non-toxic
Activity [13]: Active
Activity [14]: Non-toxic
Activity [15]: Active
Activity [16]: Non-toxic

inhibition [19]: Active
Activity [6]: Active
Compound: CCC(CC)(c1ccc(C(=O)NCCCC(=O)NO)cc1)c1ccc(OCC(O)C(C)(C)C)c(C)n1 (configuration not stated)
inhibition [18]: Active
Activity [5]: Active; Did Not Appear To Be A Full Agonist
inhibition [20]: Active
Activity [21]: Active

Activity [5]: Active
Activity [6]: Active
Compound: CCC(CC)(c1ccc(C(=O)NCCCCCC(=O)NO)cc1)c1ccc(OCC(O)C(C)(C)C)c(C)c1 (configuration not stated)
inhibition [22]: Active; High Levels Of Acetylation Observed
inhibition [23]: Active; High Levels Of Acetylation Observed
inhibition [24]: Active; High Levels Of Acetylation Observed

Compound: Nc1ccn([C@@H]2O[C@H](CO)[C@@H](O)C2(F)F)c(=O)n1 [GEMCITABINE]
Activity [25]: Non-toxic
Activity [26]: Active
Activity [27]: Non-toxic

inhibition [19]: Active
Activity [6]: Active
Compound: CCC(CC)(c1ccc(C(=O)NCCCCCC(=O)NO)cc1)c1ccc(OCC(O)C(C)(C)C)c(C)n1 (configuration not stated)
inhibition [18]: Active
Activity [5]: Active; Did Not Appear To Be A Full Agonist
inhibition [20]: Active
Activity [21]: Active
